Laboratory results published in ChEMBL document CHEMBL3885881, “DrugMatrix”.

Species on record: Rattus norvegicus
Type: toxicity, organism-based, Sprague-Dawley
Conditions: in vivo, po, route oral GAVAGE, vehicle 100 % SALINE; for ABSOLUTE EOSINOPHIL / ABSOLUTE LYMPHOCYTE / ABSOLUTE MONOCYTE / ABSOLUTE SEGMENTED NEUTROPHIL / BASOPHIL / EOSINOPHIL / ERYTHROCYTE COUNT / HEMATOCRIT / HEMOGLOBIN / LEUKOCYTE COUNT / LYMPHOCYTE / MEAN CORPUSCULAR HEMOGLOBIN / MEAN CORPUSCULAR HEMOGLOBIN CONCENTRATION / MEAN CORPUSCULAR VOLUME / MONOCYTE / NEUTROPHIL / NUCLEATED RED BLOOD CELLS / PLATELET COUNT: tissue Blood; for ALANINE AMINOTRANSFERASE / ALBUMIN / ALKALINE PHOSPHATASE / ASPARTATE AMINOTRANSFERASE / BLOOD UREA NITROGEN / CARBON DIOXIDE / CHLORIDE / CHOLESTEROL / CREATINE PHOSPHOKINASE / CREATININE / GLUCOSE / LACTATE DEHYDROGENASE / LIPASE / PHOSPHORUS / POTASSIUM / SODIUM / TOTAL BILIRUBIN / TOTAL PROTEIN / URIC ACID: tissue Plasma
[1] = 3000 mg/kg, 24 h, dose level Low, time 1 day
[2] = 6000 mg/kg, 6 h, dose level High, time 0.25 day
[3] = 6000 mg/kg, 24 h, dose level High, time 1 day

Description: DrugMatrix - Regimen: Single

**Q.** Which results are given for `CCO` [ALCOHOL]?
**A.** ABSOLUTE EOSINOPHIL [1]: 30.5 CELLS/uL; ABSOLUTE LYMPHOCYTE [1]: 9902 CELLS/uL; ABSOLUTE MONOCYTE [1]: 124.33 CELLS/uL; ABSOLUTE SEGMENTED NEUTROPHIL [1]: 1059.83 CELLS/uL; BASOPHIL [1]: 0%; EOSINOPHIL [1]: 0.17%; ERYTHROCYTE COUNT [1]: 5.39 x10E6/uL; HEMATOCRIT [1]: 34.67%; HEMOGLOBIN [1]: 13.7 G/DL; LEUKOCYTE COUNT [1]: 11.12 x10E3/uL; LYMPHOCYTE [1]: 88.17%; MEAN CORPUSCULAR HEMOGLOBIN [1]: 25.42 pg; MEAN CORPUSCULAR HEMOGLOBIN CONCENTRATION [1]: 39.57 G/DL; MEAN CORPUSCULAR VOLUME [1]: 64.33 fL; MONOCYTE [1]: 1.17%; NEUTROPHIL [1]: 10.5%; NUCLEATED RED BLOOD CELLS [1]: 0 /100WBC; PLATELET COUNT [1]: 1071.33 x10E3/uL; ALANINE AMINOTRANSFERASE [1]: 70.67 u/L; ALBUMIN [1]: 4.18 G/DL; ALKALINE PHOSPHATASE [1]: 267 u/L; ASPARTATE AMINOTRANSFERASE [1]: 95.33 u/L; BLOOD UREA NITROGEN [1]: 11.67 mg/dL; CARBON DIOXIDE [1]: 35.67 mmol/L; CHLORIDE [1]: 99.5 MEQ/L; CHOLESTEROL [1]: 80.17 mg/dL; CREATINE PHOSPHOKINASE [1]: 199.5 u/L; CREATININE [1]: 0.21 mg/dL; GLUCOSE [1]: 141 mg/dL; LACTATE DEHYDROGENASE [1]: 59.67 u/L; LIPASE [1]: 9.67 u/L; PHOSPHORUS [1]: 10.12 mg/dL; POTASSIUM [1]: 5.58 MEQ/L; SODIUM [1]: 145.6 MEQ/L; TOTAL BILIRUBIN [1]: 0.17 mg/dL; TOTAL PROTEIN [1]: 6.1 G/DL; URIC ACID [1]: 0.45 mg/dL; ABSOLUTE EOSINOPHIL [2]: 29.17 CELLS/uL; ABSOLUTE LYMPHOCYTE [2]: 14165.5 CELLS/uL; ABSOLUTE MONOCYTE [2]: 257.5 CELLS/uL; ABSOLUTE SEGMENTED NEUTROPHIL [2]: 3164.5 CELLS/uL; BASOPHIL [2]: 0%; EOSINOPHIL [2]: 0.17%; ERYTHROCYTE COUNT [2]: 5.58 x10E6/uL; HEMATOCRIT [2]: 37.53%; HEMOGLOBIN [2]: 13.8 G/DL; LEUKOCYTE COUNT [2]: 17.62 x10E3/uL; LYMPHOCYTE [2]: 81.33%; MEAN CORPUSCULAR HEMOGLOBIN [2]: 24.78 pg; MEAN CORPUSCULAR HEMOGLOBIN CONCENTRATION [2]: 36.83 G/DL; MEAN CORPUSCULAR VOLUME [2]: 67.33 fL; MONOCYTE [2]: 1.33%; NEUTROPHIL [2]: 17.17%; NUCLEATED RED BLOOD CELLS [2]: 0 /100WBC; PLATELET COUNT [2]: 1061.5 x10E3/uL; ALANINE AMINOTRANSFERASE [2]: 46 u/L; ALBUMIN [2]: 3.8 G/DL; ALKALINE PHOSPHATASE [2]: 242.17 u/L; ASPARTATE AMINOTRANSFERASE [2]: 95.83 u/L; BLOOD UREA NITROGEN [2]: 12.33 mg/dL; CARBON DIOXIDE [2]: 17.17 mmol/L; CHLORIDE [2]: 105.33 MEQ/L; CHOLESTEROL [2]: 77 mg/dL; CREATINE PHOSPHOKINASE [2]: 431.5 u/L; CREATININE [2]: 0.13 mg/dL; GLUCOSE [2]: 194.5 mg/dL; LACTATE DEHYDROGENASE [2]: 355.33 u/L; LIPASE [2]: 9.33 u/L; PHOSPHORUS [2]: 16.82 mg/dL; POTASSIUM [2]: 5.94 MEQ/L; SODIUM [2]: 144.57 MEQ/L; TOTAL BILIRUBIN [2]: 0.0667 mg/dL; TOTAL PROTEIN [2]: 5.12 G/DL; URIC ACID [2]: 2.45 mg/dL; ABSOLUTE EOSINOPHIL [3]: 0 CELLS/uL; ABSOLUTE LYMPHOCYTE [3]: 13674.83 CELLS/uL; ABSOLUTE MONOCYTE [3]: 258.33 CELLS/uL; ABSOLUTE SEGMENTED NEUTROPHIL [3]: 983.5 CELLS/uL; BASOPHIL [3]: 0%; EOSINOPHIL [3]: 0%; ERYTHROCYTE COUNT [3]: 5.27 x10E6/uL; HEMATOCRIT [3]: 34.4%; HEMOGLOBIN [3]: 13.68 G/DL; LEUKOCYTE COUNT [3]: 14.92 x10E3/uL; LYMPHOCYTE [3]: 91.33%; MEAN CORPUSCULAR HEMOGLOBIN [3]: 26.03 pg; MEAN CORPUSCULAR HEMOGLOBIN CONCENTRATION [3]: 39.82 G/DL; MEAN CORPUSCULAR VOLUME [3]: 65.33 fL; MONOCYTE [3]: 1.83%; NEUTROPHIL [3]: 6.83%; NUCLEATED RED BLOOD CELLS [3]: 0 /100WBC; PLATELET COUNT [3]: 1124.67 x10E3/uL; ALANINE AMINOTRANSFERASE [3]: 81 u/L; ALBUMIN [3]: 3.95 G/DL; ALKALINE PHOSPHATASE [3]: 284.5 u/L; ASPARTATE AMINOTRANSFERASE [3]: 90.67 u/L; BLOOD UREA NITROGEN [3]: 11.5 mg/dL; CARBON DIOXIDE [3]: 32.5 mmol/L; CHLORIDE [3]: 100.67 MEQ/L; CHOLESTEROL [3]: 68.83 mg/dL; CREATINE PHOSPHOKINASE [3]: 207.83 u/L; CREATININE [3]: 0.3 mg/dL; GLUCOSE [3]: 144 mg/dL; LACTATE DEHYDROGENASE [3]: 74 u/L; LIPASE [3]: 9 u/L; PHOSPHORUS [3]: 10.7 mg/dL; POTASSIUM [3]: 5.34 MEQ/L; SODIUM [3]: 145 MEQ/L; TOTAL BILIRUBIN [3]: 0.15 mg/dL; TOTAL PROTEIN [3]: 5.78 G/DL; URIC ACID [3]: 0.53 mg/dL
